Results taken from patent publication US20230330045A1 (priority 2020, published 2023).

Molecular target: eel acetylcholinesterase (AChE) (Electrophorus electricus, UniProt O42275)
Test: Eel AChE fluorescence assay (AMPLEX Red kit)
Assay type: biochemical
Details: eel AChE activity, at 20 μM; read-out: Percentage inhibition
Experimental: Enzymatic reactions consisted of 50 μM acetylcholine, 200 μM AIVIPLEX™ Red reagent, 1 U/mL horseradish peroxidase, 0.1 U/mL choline oxidase and 0.096 U/mL acetylcholinesterase, with 30 1% DMSO. […] Control reactions lacking acetylcholinesterase but containing 5 μM H2O2 in presence of compounds were analyzed at the same wavelength to exclude compounds that display assay interference. Dose-response curves were performed in duplicate.

Sequence of eel acetylcholinesterase (AChE) (O42275 24-633): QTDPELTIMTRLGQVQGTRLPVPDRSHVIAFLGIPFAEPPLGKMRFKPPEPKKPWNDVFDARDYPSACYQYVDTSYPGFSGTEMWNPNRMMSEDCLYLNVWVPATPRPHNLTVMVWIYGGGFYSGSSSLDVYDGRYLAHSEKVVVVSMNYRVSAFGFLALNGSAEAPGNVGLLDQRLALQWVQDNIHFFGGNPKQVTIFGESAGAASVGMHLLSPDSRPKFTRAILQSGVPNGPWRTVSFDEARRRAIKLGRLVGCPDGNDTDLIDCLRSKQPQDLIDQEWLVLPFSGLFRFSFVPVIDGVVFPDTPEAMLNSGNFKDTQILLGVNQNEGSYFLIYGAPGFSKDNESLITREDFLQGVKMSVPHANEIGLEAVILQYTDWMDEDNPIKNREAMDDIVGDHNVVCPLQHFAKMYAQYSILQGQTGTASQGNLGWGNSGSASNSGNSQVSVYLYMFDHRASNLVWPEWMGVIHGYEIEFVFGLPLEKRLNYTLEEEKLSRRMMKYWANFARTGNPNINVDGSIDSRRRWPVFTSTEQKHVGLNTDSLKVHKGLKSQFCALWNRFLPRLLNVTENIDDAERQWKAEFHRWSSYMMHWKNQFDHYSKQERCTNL

Nc1c2ccccc2nc2ccccc12 [aminacrine]
inhibition at 20 µM: 99.2%
